“And” between values parts separate entries of the source, which are not always exact repeats. Equal values may be shown once. Read-outs that look alike come from different tables or passages of the source.

These results are taken from US11351170B2, “Substituted pyrimidines as CDK4/6 inhibitors” (priority 2017, dated 2022).

One assay has as its target CDK4 (Homo sapiens (Human), UniProt P11802). The experiment in a line: CDK4 Inhibition Assay. The assay is classed as biochemical. The protocol:
CDK4 Inhibition Assay. […] The same volume of DMSO was adopted as high control (HC). 20 nL of compound solution in DMSO (diluted) were dispensed into anew 384-well assay plate by Echo 550. […] Kinase assay buffer supplemented with substrate peptides was employed as low control (LC) to monitor the background. 400 µM ATP was prepared in kinase assay buffer containing and 15 μL of ATP solution was added to each well to start the reaction. The assay plate was incubated at 25° C. for 90 minutes and the reaction was stopped by adding 40 μL of 0.5 M EDTA.
Phosphorylated fluorescent-tagged peptides were differentiated from non-phosphorylated peptides by separating using Caliper EZ Reader II and the detection was directly converted to conversion ratio (ratio of phosphorylated to non-phosphorylated peptide).
For estimation of IC50, the % substrate conversion values are transformed to % relative activity by applying the following equation: […]

Another assay has as its target CDK6 (Homo sapiens (Human), UniProt Q00534). The assay can be described thus: CDK6 Inhibition Assay. The assay is classed as biochemical. The protocol:
CDK6 Inhibition Assay. […] The same volume of DMSO was adopted as high control (HC). 20 nL compound solution in DMSO (diluted) were dispensed into a new 384-well assay plate by Echo 550. […] Kinase assay buffer supplemented with substrate peptides was employed as low control (LC) to monitor the background. 400 µM ATP was prepared in kinase assay buffer containing and 15 μL of ATP solution was added to each well to start the reaction. The assay plate was incubated at 25° C. for 90 minutes and the reaction was stopped by adding 40 μL of 0.5 M EDTA.

For the next assay, the target named is CDK2 (Homo sapiens (Human), UniProt P24941). The experiment in a line: CDK2 Inhibition Assay. The assay is classed as biochemical. The protocol:
CDK2 Inhibition Assay. […] The same volume of DMSO was adopted as high control. 20 nL of the test compound solution in DMSO were dispensed into a new 384-well assay plate by Echo 550. […] Kinase assay buffer supplemented with substrate peptides was employed as low control to monitor the background. 400 µM ATP was prepared in kinase assay buffer containing and 5 μL of ATP solution was added to each well to start the reaction. The assay plate was incubated at 25° C. for 90 minutes and the reaction was stopped by adding 40 μL of 0.5 M EDTA.
Phosphorylated fluorescent-tagged peptides were differentiated from non-phosphorylated peptides by separating using Caliper EZ Reader II and the detection was directly converted to conversion ratio.

The next assay concerns the target CDK5 (Homo sapiens (Human), UniProt Q00535). The experiment in a line: CDK5 Inhibition Assay. The assay is classed as biochemical. The protocol: CDK5 Inhibition Assay. […] The same volume of DMSO was adopted as high control. 20 nL of the test compound solution in DMSO were dispensed into a new 384-well assay plate by Echo 550. […] Kinase assay buffer supplemented with substrate peptides was employed as low control to monitor the background. 40 µM ATP was prepared in kinase assay buffer containing and 5 μL of ATP solution was added to each well to start the reaction. The assay plate was incubated at 25° C. for 90 minutes and the reaction was stopped by adding 40 μL of 0.5 M EDTA.

Another assay has as its system HSPCs. The note with it: CDK4/6 dependent subsets of healthy cells such as HSPCs; cited from earlier work.

CDK6, sequence (Q00534 whole entry): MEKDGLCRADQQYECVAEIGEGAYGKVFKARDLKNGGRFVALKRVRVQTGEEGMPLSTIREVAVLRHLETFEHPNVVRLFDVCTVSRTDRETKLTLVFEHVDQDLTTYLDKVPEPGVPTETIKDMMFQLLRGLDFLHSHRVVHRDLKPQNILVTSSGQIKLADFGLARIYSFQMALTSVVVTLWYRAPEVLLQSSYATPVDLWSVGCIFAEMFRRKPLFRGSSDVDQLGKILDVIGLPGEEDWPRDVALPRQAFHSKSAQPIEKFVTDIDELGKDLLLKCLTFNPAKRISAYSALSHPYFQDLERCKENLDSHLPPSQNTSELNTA
CDK6, sequence (P30281 whole entry partner): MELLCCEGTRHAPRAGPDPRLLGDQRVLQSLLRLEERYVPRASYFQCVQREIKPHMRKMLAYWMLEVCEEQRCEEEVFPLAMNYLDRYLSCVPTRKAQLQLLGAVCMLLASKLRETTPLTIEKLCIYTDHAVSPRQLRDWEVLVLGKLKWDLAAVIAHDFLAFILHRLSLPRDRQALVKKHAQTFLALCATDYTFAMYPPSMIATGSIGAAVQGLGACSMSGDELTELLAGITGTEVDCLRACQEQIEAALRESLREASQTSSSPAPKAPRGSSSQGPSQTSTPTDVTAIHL
CDK4, sequence (P11802 whole entry): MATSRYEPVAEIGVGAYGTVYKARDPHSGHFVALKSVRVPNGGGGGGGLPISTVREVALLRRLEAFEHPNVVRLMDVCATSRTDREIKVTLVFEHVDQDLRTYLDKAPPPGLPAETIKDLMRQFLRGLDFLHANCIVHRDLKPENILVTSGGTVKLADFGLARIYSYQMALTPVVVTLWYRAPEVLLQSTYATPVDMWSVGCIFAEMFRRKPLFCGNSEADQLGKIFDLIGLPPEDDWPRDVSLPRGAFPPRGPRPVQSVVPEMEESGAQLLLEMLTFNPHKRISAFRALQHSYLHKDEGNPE
CDK4, sequence (P30281 whole entry partner): as the sequence (P30281 whole entry partner) above
CDK5, sequence (Q00535 whole entry): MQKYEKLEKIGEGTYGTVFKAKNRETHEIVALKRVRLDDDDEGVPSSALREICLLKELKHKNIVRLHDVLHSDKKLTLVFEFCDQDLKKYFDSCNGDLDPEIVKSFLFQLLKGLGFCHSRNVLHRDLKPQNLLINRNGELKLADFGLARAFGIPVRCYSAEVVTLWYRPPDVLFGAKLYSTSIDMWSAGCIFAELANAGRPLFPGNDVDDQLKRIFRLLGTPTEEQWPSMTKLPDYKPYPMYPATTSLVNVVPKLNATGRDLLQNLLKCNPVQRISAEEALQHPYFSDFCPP
CDK5, sequence (Q15078 99-307 partner): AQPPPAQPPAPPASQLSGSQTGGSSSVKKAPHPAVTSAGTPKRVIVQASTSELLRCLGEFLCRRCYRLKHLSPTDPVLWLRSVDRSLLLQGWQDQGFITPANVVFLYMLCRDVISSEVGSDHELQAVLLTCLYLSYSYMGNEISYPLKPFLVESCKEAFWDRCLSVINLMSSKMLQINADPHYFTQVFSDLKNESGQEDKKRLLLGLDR

For the compound `CN1CCC(OCc2ccc(Nc3ncc(F)c(-c4cc(F)c5nc6n(c5c4)C(C)(C)CC6)n3)nc2)CC1` [Example 13, 5-fluoro-4-(5-fluoro-1,1-dimethyl-2,3-dihydro-1H-benzo[d]pyrrolo[1,2-a]imidazol-7-yl)-N-(5-((1-methylpiperidin-4-yloxy)methyl)pyridin-2-yl)pyrimidin-2-amine], the IC50 against CDK4 came to 0.25 nM; against CDK6, 3.92 nM; on CDK2 (read-out: CDK2 IC50) it was 174 nM; against CDK5, 433 nM.

On to `CC(=O)c1c(C)c2cnc(Nc3ccc(N4CCNCC4)cn3)nc2n(C2CCCC2)c1=O` [PD-0332991], for which, in the assay with HSPCs, the cell cycle arrest entry is “transient cell cycle arrest”.

On to `CN1CCC(Oc2ccc(Nc3ncc(F)c(-c4cc(F)c5nc6n(c5c4)C(C)(C)CC6)n3)nc2)CC1` [Example 10, 5-fluoro-4-(5-fluoro-1,1-dimethyl-2,3-dihydro-1H-benzo[d]pyrrolo[1,2-a]imidazol-7-yl)-N-(5-(1-methylpiperidin-4-yloxy)pyridin-2-yl)pyrimidin-2-amine], for which the IC50 amounted to 0.26 nM against CDK4, 2.46 nM against CDK6, 64.1 nM at CDK2 (read-out: CDK2 IC50) and 136 nM against CDK5.

Take `CN1CCN(c2ccc(Nc3ncc4cc5n(c4n3)C3(CCCCC3)CNC5=O)nc2)CC1` [Example G1T28]: in the assay with HSPCs, the cell cycle arrest result is “transient cell cycle arrest”.

Take `CC1(C)CCc2nc3c(F)cc(-c4nc(Nc5ccc(OC6CCN(CCO)CC6)cn5)ncc4F)cc3n21` [Example 14, 2-(4-(6-(5-fluoro-4-(5-fluoro-1,1-dimethyl-2,3-dihydro-1H-benzo[d]pyrrolo[1,2-a]imidazol-7-yl)pyrimidin-2-ylamino)pyridin-3-yloxy)piperidin-1-yl)ethanol]: the IC50 at CDK4 is 0.25 nM; against CDK6, 2.72 nM; at CDK2 (read-out: CDK2 IC50), 70.3 nM; on CDK5 it was 213 nM.

Turning to `CN1CCC(COc2ccc(Nc3ncc(F)c(-c4cc(F)c5nc6n(c5c4)C(C)(C)CC6)n3)nc2)CC1` [Example 12, 5-fluoro-4-(5-fluoro-1,1-dimethyl-2,3-dihydro-1H-benzo[d]pyrrolo[1,2-a]imidazol-7-yl)-N-(5-((1-methylpiperidin-4-yl)methoxy)pyridin-2-yl)pyrimidin-2-amine], the IC50 is 0.11 nM at CDK4, 1.89 nM against CDK6, 55.2 nM on CDK2 (read-out: CDK2 IC50) and 159 nM against CDK5.

Turning to `CC1(C)CCc2nc3c(F)cc(-c4nc(Nc5ccc6c(n5)CCN(C(=O)CO)C6)ncc4F)cc3n21` [Example 5, 1-(2-(5-fluoro-4-(5-fluoro-1,1-dimethyl-2,3-dihydro-1H-benzo[d]pyrrolo[1,2-a]imidazol-7-yl)pyrimidin-2-ylamino)-7,8-dihydro-1,6-naphthyridin-6 (5H)-yl)-2-hydroxyethanone, reference compound], the IC50 on CDK4 was 0.12 nM; at CDK6, 1.87 nM; on CDK2 (read-out: CDK2 IC50), 17.6 nM; against CDK5, 36.8 nM.

Consider `CN(C)[C@H]1CCN(c2ccc(Nc3ncc(F)c(-c4cc(F)c5nc6n(c5c4)C(C)(C)CC6)n3)nc2)C1` [Example 7, (S)—N-(5-(3-(dimethylamino)pyrrolidin-1-yl)pyridin-2-yl)-5-fluoro-4-(5-fluoro-1,1-dimethyl-2,3-dihydro-1H-benzo[d]pyrrolo[1,2-a]imidazol-7-yl)pyrimidin-2-amine], for which the IC50 against CDK4 stood at 0.18 nM; against CDK6, 3.96 nM; against CDK2 it was 16.1 nM; on CDK2 (read-out: CDK2 IC50) it was 65.5 nM; against CDK5 it was 50.6 nM.

For `CN(C)[C@H]1CCN(C(=O)c2ccc(Nc3ncc(F)c(-c4cc(F)c5nc6n(c5c4)C(C)(C)CC6)n3)nc2)C1` [Example 6, (S)-(3-(dimethylamino)pyrrolidin-1-yl)(6-(5-fluoro-4-(5-fluoro-1,1-dimethyl-2,3-dihydro-1H-benzo[d]pyrrolo[1,2-a]imidazol-7-yl)pyrimidin-2-ylamino)pyridin-3-yl)methanone], the IC50 came out at 0.2 nM against CDK4; 1.19 nM against CDK6; 5.62 nM against CDK2; 20.4 nM at CDK2 (read-out: CDK2 IC50); 19.1 nM against CDK5.

On to `CCN1CCC(c2ccc(Nc3ncc(F)c(-c4cc(F)c5nc6n(c5c4)C(C)(C)CC6)n3)nc2)CC1` [Example 3, N-(5-(1-ethylpiperidin-4-yl)pyridin-2-yl)-5-fluoro-4-(5-fluoro-1,1-dimethyl-2,3-dihydro-1H-benzo[d]pyrrolo[1,2-a]imidazol-7-yl)pyrimidin-2-amine, reference compound], for which the IC50 was 0.08 nM against CDK4; 1.93 nM at CDK6; 114 nM and 91 nM on CDK2 (read-out: CDK2 IC50); 38.3 nM against CDK5.

On to `CCN1CCN(Cc2ccc(Nc3ncc(F)c(-c4cc(F)c5nn6c(c5c4)CCC6)n3)nc2)CC1` [Example 16, N-(5-((4-ethylpiperazin-1-yl)methyl)pyridin-2-yl)-5-fluoro-4-(6-fluoro-2,3-dihydro-1H-pyrrolo[1,2-b]indazol-8-yl)pyrimidin-2-amine], for which the half-maximal inhibitory concentration (IC50) was 9.46 nM against CDK4, 93.7 nM on CDK6, more than 10000 nM on CDK2 (read-out: CDK2 IC50) and more than 10000 nM against CDK5.

On to `CCN1CCN(c2ccc(Nc3ncc(F)c(-c4cc(F)c5nc6n(c5c4)C(C)(C)CC6)n3)nc2)CC1` [Example 15, N-(5-(4-ethylpiperazin-1-yl)pyridin-2-yl)-5-fluoro-4-(5-fluoro-1,1-dimethyl-2,3-dihydro-1H-benzo[d]pyrrolo[1,2-a]imidazol-7-yl)pyrimidin-2-amine, reference compound], for which the IC50 at CDK4 is 0.07 nM; at CDK6, 0.88 nM; on CDK2 (read-out: CDK2 IC50), 117 nM and 21.6 nM; against CDK5, 46.8 nM.

`CCN1CCC(COc2ccc(Nc3cc(-c4cc(F)c5nc6n(c5c4)C(C)(C)CC6)c(F)cn3)nc2)CC1` [Example 9, N-(5-((1-ethylpiperidin-4-yl)methoxy)pyridin-2-yl)-5-fluoro-4-(5-fluoro-1,1-dimethyl-2,3-dihydro-1H-benzo[d]pyrrolo[1,2-a]imidazol-7-yl)pyridin-2-amine]: the IC50 worked out at 0.1 nM on CDK4; 2.9 nM on CDK6; 14.7 nM on CDK2; 24.7 nM at CDK2 (read-out: CDK2 IC50); 11.3 nM on CDK5.

Regarding `CC1(C)CCc2nc3c(F)cc(-c4nc(Nc5ccc(OCC6CCN(CCCO)CC6)cn5)ncc4F)cc3n21` [Example 11, 3-(4-((6-(5-fluoro-4-(5-fluoro-1,1-dimethyl-2,3-dihydro-1H-benzo[d]pyrrolo[1,2-a]imidazol-7-yl)pyrimidin-2-ylamino)pyridin-3-yloxy)methyl)piperidin-1-yl)propan-1-ol], the IC50 is 0.11 nM against CDK4, 1.02 nM at CDK6, 44.9 nM on CDK2 (read-out: CDK2 IC50) and 128 nM against CDK5.
